Test system: SEM cells
Experiment: cell viability relative to DMSO control; higher = less cytotoxic
Details: 48 h
Summary of the method: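 Viability values are per-plate percentages of DMSO wells, with background from cell-free wells. Library compounds in DMSO were pin-dosed, in an 11-point threefold series from 47 μM to 0.79 nM, onto NOMO1 or SEM (500 cells/well) or P12-Ichikawa (1000 cells/well) leukemia cells in 1536-well plates (5 μl). Those cells had been adapted for at least four passages in each medium, and CellTiter-Glo One luminescence was read after 48 h at 37°C.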

[1] = HPLM + 10% dialyzed FBS, 0.000781 µM
[2] = HPLM + 10% dialyzed FBS, 0.00234 µM
[3] = HPLM + 10% dialyzed FBS, 0.00702 µM
[4] = HPLM + 10% dialyzed FBS, 0.0211 µM
[5] = HPLM + 10% dialyzed FBS, 0.0632 µM
[6] = HPLM + 10% dialyzed FBS, 0.19 µM
[7] = HPLM + 10% dialyzed FBS, 0.569 µM
[8] = HPLM + 10% dialyzed FBS, 1.71 µM
[9] = HPLM + 10% dialyzed FBS, 5.12 µM
[10] = HPLM + 10% dialyzed FBS, 15.4 µM
[11] = HPLM + 10% dialyzed FBS, 46.1 µM
[12] = RPMI 5 mM glucose + 10% FBS, 0.000781 µM
[13] = RPMI 5 mM glucose + 10% FBS, 0.00234 µM
[14] = RPMI 5 mM glucose + 10% FBS, 0.00702 µM
[15] = RPMI 5 mM glucose + 10% FBS, 0.0211 µM
[16] = RPMI 5 mM glucose + 10% FBS, 0.0632 µM
[17] = RPMI 5 mM glucose + 10% FBS, 0.19 µM
[18] = RPMI 5 mM glucose + 10% FBS, 0.569 µM
[19] = RPMI 5 mM glucose + 10% FBS, 1.71 µM
[20] = RPMI 5 mM glucose + 10% FBS, 5.12 µM
[21] = RPMI 5 mM glucose + 10% FBS, 15.4 µM
[22] = RPMI 5 mM glucose + 10% FBS, 46.1 µM
[23] = RPMI 5 mM glucose + 10% dialyzed FBS, 0.000781 µM
[24] = RPMI 5 mM glucose + 10% dialyzed FBS, 0.00234 µM
[25] = RPMI 5 mM glucose + 10% dialyzed FBS, 0.00702 µM
[26] = RPMI 5 mM glucose + 10% dialyzed FBS, 0.0211 µM
[27] = RPMI 5 mM glucose + 10% dialyzed FBS, 0.0632 µM
[28] = RPMI 5 mM glucose + 10% dialyzed FBS, 0.19 µM
[29] = RPMI 5 mM glucose + 10% dialyzed FBS, 0.569 µM
[30] = RPMI 5 mM glucose + 10% dialyzed FBS, 1.71 µM
[31] = RPMI 5 mM glucose + 10% dialyzed FBS, 5.12 µM
[32] = RPMI 5 mM glucose + 10% dialyzed FBS, 15.4 µM
[33] = RPMI 5 mM glucose + 10% dialyzed FBS, 46.1 µM

SMILES | cell viability [1] [%] | cell viability [2] [%] | cell viability [3] [%] | cell viability [4] [%] | cell viability [5] [%] | cell viability [6] [%] | cell viability [7] [%] | cell viability [8] [%] | cell viability [9] [%] | cell viability [10] [%] | cell viability [11] [%] | cell viability [12] [%] | cell viability [13] [%] | cell viability [14] [%] | cell viability [15] [%] | cell viability [16] [%] | cell viability [17] [%] | cell viability [18] [%] | cell viability [19] [%] | cell viability [20] [%] | cell viability [21] [%] | cell viability [22] [%] | cell viability [23] [%] | cell viability [24] [%] | cell viability [25] [%] | cell viability [26] [%] | cell viability [27] [%] | cell viability [28] [%] | cell viability [29] [%] | cell viability [30] [%] | cell viability [31] [%] | cell viability [32] [%] | cell viability [33] [%]
Cc1nc(Nc2ncc(C(=O)Nc3c(C)cccc3Cl)s2)cc(N2CCN(CCO)CC2)n1 | 88.1 | 106 | 93.3 | 98.3 | 91.7 | 92 | 80.2 | 81.9 | 54.9 | 34.9 | 29.9 | 66.6 | 68.9 | 64.9 | 78.4 | 68.2 | 66.1 | 74.7 | 69.9 | 60.1 | 17.5 | 14.8 | 100 | 102 | 106 | 99.6 | 104 | 99.9 | 88.3 | 79.2 | 50.3 | 26.4 | 25.2
CN(C)CCOC(c1ccccc1)c1ccccc1 | 90.4 | 90.5 | 108 | 110 | 106 | 98.1 | 97.1 | 94.3 | 91.8 | 92.9 | 90.3 | 107 | 107 | 113 | 105 | 111 | 114 | 104 | 117 | 94.1 | 116 | 97.5 | 104 | 96.8 | 115 | 121 | 119 | 114 | 122 | 102 | 94.8 | 94.4 | 92
C=C(C)[C@@H]1CC[C@]2(C)CC[C@]3(C)[C@H](CC[C@@H]4[C@@]5(C)CC[C@H](O)C(C)(C)[C@@H]5CC[C@]43C)[C@@H]12 | 86.4 | 103 | 101 | 91.6 | 89 | 100 | 11 | 109 | 111 | 123 | 121 | 97.5 | 107 | 112 | 103 | 104 | 113 | 10 | 110 | 135 | 126 | 124 | 81.3 | 98.5 | 104 | 99.3 | 102 | 108 | 8.47 | 111 | 101 | 90.5 | 104
CCOC(=O)Nc1ccc(NCc2ccc(F)cc2)cc1N | 122 | 122 | 128 | 120 | 103 | 123 | 119 | 112 | 113 | 107 | 90 | 115 | 116 | 123 | 136 | 102 | 131 | 122 | 111 | 113 | 134 | 97.7 | 106 | 132 | 121 | 128 | 123 | 124 | 112 | 122 | 124 | 122 | 83.5
CN(N=O)C(=O)N[C@H]1C(O)OC(CO)[C@@H](O)[C@@H]1O (stereo partly drawn) | 66.7 | 75.4 | 79.1 | 74.5 | 81.8 | 74.6 | 74 | 77.2 | 89.2 | 40.3 | 37.9 | 101 | 101 | 106 | 87.8 | 106 | 76.3 | 86.5 | 108 | 119 | 48.3 | 51.6 | 63.9 | 74 | 73.7 | 63.8 | 70.4 | 55.1 | 80.9 | 78.5 | 80.8 | 32.7 | 43.3
CN[C@H](CC(C)C)C(=O)N[C@H]1C(=O)N[C@@H](CC(N)=O)C(=O)N[C@H]2C(=O)N[C@H]3C(=O)N[C@H](C(=O)N[C@H](C(=O)O)c4cc(O)cc(O)c4-c4cc3ccc4O)[C@H](O)c3ccc(c(Cl)c3)Oc3cc2cc(c3O[C@@H]2O[C@H](CO)[C@@H](O)[C@H](O)[C@H]2O[C@H]2C[C@](C)(N)[C@H](O)[C@H](C)O2)Oc2ccc(cc2Cl)[C@H]1O | 94.2 | 94.3 | 124 | 112 | 125 | 111 | 128 | 89 | 126 | 129 | 122 | 127 | 114 | 120 | 130 | 144 | 143 | 148 | 126 | 138 | 131 | 142 | 112 | 126 | 125 | 138 | 126 | 114 | 131 | 95.9 | 138 | 118 | 110
Cc1ccc(C(C)(O)c2nc3ccccc3s2)c(C)c1 (stereo not drawn) | 75.7 | 95.1 | 106 | 82.9 | 108 | 114 | 6.4 | 76.6 | 94.2 | 62.4 | 63.5 | 91.7 | 110 | 94.2 | 102 | 107 | 123 | 7.03 | 70.7 | 102 | 61.2 | 63.2 | 77.1 | 112 | 93.7 | 114 | 91.1 | 115 | 8 | 69.7 | 97.4 | 56.5 | 56.6
CC[C@H]1OC(=O)[C@H](C)[C@@H](O[C@H]2C[C@@](C)(OC)[C@@H](O)[C@H](C)O2)[C@H](C)[C@@H](O[C@@H]2O[C@@H](C)C[C@H](N(C)C)[C@H]2O)[C@](C)(O)C[C@@H](C)C(=O)[C@H](C)[C@@H](O)[C@]1(C)O | 79.6 | 80.8 | 87.8 | 95.4 | 80.6 | 85.6 | 105 | 81.4 | 89.8 | 82.3 | 32.2 | 83 | 94.3 | 101 | 102 | 90 | 105 | 106 | 106 | 94.8 | 35 | 18.7 | 79.5 | 84.9 | 84.7 | 96.9 | 89.4 | 94.5 | 92.2 | 86.8 | 80.6 | 80.7 | 24.5
NC(=O)N1c2ccccc2CC(=O)c2ccccc21 |  |  |  |  |  |  |  |  |  |  |  | 124 | 135 | 121 | 132 | 126 | 123 | 139 | 137 | 137 | 161 | 142 | 110 | 116 | 114 | 117 | 129 | 118 | 105 | 124 | 122 | 123 | 147
CSC1=CC(=CC=C1)NC2=NC3=C(C=N2)/C=C(C(=O)N3C)/C4=C(Cl)C=CC=C4Cl | 86.5 | 90.7 | 97.7 | 77.3 | 86.4 | 89.7 | 97 | 99.4 | 88.9 | 77 | 55.2 | 120 | 110 | 110 | 53.5 | 105 | 97.4 | 126 | 120 | 112 | 91.4 | 81.3 | 96.1 | 89 | 91.9 | 80.1 | 96 | 78.3 | 103 | 84.9 | 84.3 | 69.4 | 52.4
COc1cc2nccc(Oc3ccc(NC(=O)Nc4cc(C)on4)c(Cl)c3)c2cc1OC | 112 | 116 | 107 | 107 | 114 | 102 | 100 | 71.2 | 64.1 | 59.9 | 33.1 | 86.4 | 85.2 | 79.9 | 74.3 | 82.1 | 72.5 | 73.9 | 49.6 | 33 | 31.3 | 14.1 | 112 | 125 | 123 | 107 | 108 | 115 | 112 | 71.5 | 61.3 | 43 | 20.1
CCOC(=O)C/1=C(C)/NC(=S)NC1C2=CC=CC(=C2)O (stereo not drawn) | 110 | 99.3 | 103 | 111 | 68.2 | 24.3 | 22.9 | 22.4 | 7.01 | 16 | 15.2 | 89.4 | 104 | 118 | 109 | 109 | 20.5 | 15.2 | 12 | 6.19 | 7.56 | 3.89 | 100 | 100 | 108 | 106 | 101 | 47.2 | 21.2 | 20.8 | 5.56 | 14.3 | 8.93
O=C1\C=C(/OC2=C1C=CC=C2C3=CC=CC=C3)N4CCOCC4 | 45.8 | 90.5 | 89.2 | 80.6 | 65.1 | 89.3 | 90.3 | 59 | 87.3 | 92.3 | 58.3 | 71.7 | 114 | 111 | 115 | 75.6 | 91.8 | 110 | 74 | 114 | 94.6 | 79.6 | 48.9 | 90 | 88.3 | 94.4 | 66.7 | 80 | 86.5 | 61.9 | 101 | 84.7 | 62.7
COc1ccc(/C=C\c2cc(OC)c(OC)c(OC)c2)cc1O | 27.3 | 26.8 | 29.2 | 27.9 | 19.5 | 15.9 | 16.8 | 12.7 | 8.59 | 6.14 | 3.96 | 20 | 22.4 | 23 | 15.1 | 8.98 | 7.29 | 7.3 | 5.54 | 5.21 | 3.08 | 2.03 | 23.3 | 28.5 | 33.5 | 25.2 | 12.6 | 10.5 | 9.81 | 7.46 | 6.37 | 4.4 | 2.55
O=C(Cc1cccc(OC(F)(F)F)c1)Nc1ccc(CCCCc2nnc(NC(=O)Cc3ccccn3)s2)nn1 | 122 | 107 | 119 | 112 | 107 | 89 | 86.7 | 87.4 | 79.5 | 72 | 65.1 |  |  |  |  |  |  |  |  |  |  |  | 141 | 116 | 108 | 91.8 | 78.8 | 70.3 | 70.6 | 60.2 | 56.7 | 50.7 | 46
